The values that follow come from paper PMC10976043, “Function and Mechanism of Antiviral Wasp Venom Peptide Protopolybia-MP III and Its Derivatives against HSV-1” (Toxins, 2024).

Ends that are not written are not given here.

Series [1] relates to Vero cells. Description: CCK8 cytotoxicity assay, Vero cells. Type of series: cell-based, monkey. The conditions noted are these: 40 μg/mL, 24 h. How it is done: (A) Amino acid sequence of Protopolybia-MP III. Basic residues are labeled blue, and acidic residues are labeled red. (B,C) Suppression of intracellular HSV-1 infection by Protopolybia-MP III. Cells were preincubated with Protopolybia-MP III at different concentrations or PBS for 1 h and then infected with HSV-1 at a multiplicity of infection (MOI) of 1. After 24 h, the cells were collected. Intracellular HSV-1 RNA was analyzed by qPCR (B), and intracellular HSV-1 ICP0 protein levels were analyzed by Western blotting (C). (D) Suppression of Protopolybia-MP III on extracellular HSV-1 particles. Cells were treated with Protopolybia-MP III at different concentrations or PBS for 24 h, and then the supernatant was collected and evaluated in a plaque formation assay. (E) Cytotoxicity of Protopolybia-MP III to Vero cells. Cells were treated with Protopolybia-MP III or PBS at different concentrations for 24 h, and then the cytotoxicity was determined by CCK8 assay. * p < 0.05. ** p < 0.01. *** p < 0.001.
Cells were seeded in a 96-well plate (7000–10,000 cells per well) and cultured at 37 °C overnight. Peptides in a series of concentrations were added to the medium, and cells were then incubated at 37 °C for 24 h. […] Finally, the absorbance was measured at 450 nm using a microplate reader (BioTek, Winooski, VT, USA).
On the technique in general: Formazan colour is commonly taken as a measure of viable cells.

The subject of series [2] is HSV-1 virion. Description: HSV-1 free virion infectivity assay, qPCR. Type of series: cell-based, herpes simplex virus type 1. The conditions noted are these: then Vero cells infected, 24 h. How it is done:
Figure 5 Protopolybia-MP III destroys the integrity of HSV-1 free virions. (A) Schematic diagram for studying the effect of Protopolybia-MP III on HSV-1 free virion infectivity. (B) Effects of Protopolybia-MP III on HSV-1 free virion infectivity at different temperatures. HSV-1 (MOI = 1) and 20 μg/mL Protopolybia-MP III or PBS were coincubated at 4 °C, 22 °C, and 37 °C for 1 h, and then Vero cells were infected as described in (A). After 24 h, cells were collected, and intracellular HSV-1 RNA was analyzed by qPCR. (C) Effects of different concentrations of Protopolybia-MP III on HSV-1 free virion infectivity. HSV-1 (MOI = 1) and 1 or 10 μg/mL Protopolybia-MP III or PBS were coincubated at 37 °C for 1 h, and then Vero cells were infected as described in (A). After 24 h, cells were collected, and intracellular HSV-1 RNA was analyzed by qPCR. (D,E) The effect of Protopolybia-MP III on HSV-1 free virion integrity. HSV-1 and 20 μg/mL Protopolybia-MP III or PBS were coincubated at 37 °C for 1 h. Then, after centrifuging for 2 h at 40,000 rpm at 4 °C, the contents of HSV-1 gB in the supernatant and precipitate were detected by Western blotting (D). In addition, the structure of HSV-1 virions after incubation with Protopolybia-MP III was observed by electron microscopy. The red arrow points to a destroyed HSV-1 virion. *** p < 0.001.
Figure 7 Antiviral activity analysis of Protopolybia-MP III mutants. (A) Amino acid sequences of Protopolybia-MP III mutants. Identical amino acids among Protopolybia-MP I, Protopolybia-MP III, and its mutants are marked in blue, and different amino acids are marked in red. (B) Suppression of Protopolybia-MP I, Protopolybia-MP III, and its mutants on intracellular HSV-1 content. Cells were preincubated with 20 μg/mL peptides or PBS for 1 h and then infected with HSV-1 at an MOI of 1. After 24 h, the cells were collected. Intracellular HSV-1 ICP0 protein levels were analyzed by Western blotting. The ratios of HSV-1 ICP0 to GAPDH were calculated by ImageJ software. (C) Inhibition of HSV-1 free virion infectivity by Protopolybia-MP I, Protopolybia-MP III, and its mutants. HSV-1 (MOI = 1) and 5 μg/mL peptides or PBS were coincubated at 37 °C for 1 h, and the mixtures were then used to infect Vero cells. After 24 h, cells were collected, and intracellular HSV-1 RNA was analyzed by qPCR. ns, no significance. * p < 0.05. ** p < 0.01. *** p < 0.001.
Cells were collected and lysed using TRIzol reagent (Beyotime Biotechnology, Shanghai, China) to release the intracellular total RNA, followed by precipitation with isopropanol. The first-strand cDNA was reverse-transcribed by the HiScript III 1st Strand cDNA Synthesis Kit (+gDNA wiper) (Vazyme, Nanjing, China). The cDNA was quantitated by qPCR with primers using Taq Pro Universal SYBR qPCR Master Mix (Vazyme). The HSV-1 primers were 5′-[…]-3′ (sense) and 5′-[…]-3′ (antisense). The monkey GAPDH primers were 5′-[…]-3′ (sense) and 5′-[…]-3′ (antisense). The human GAPDH primers were 5′-[…]-3′ (sense) and 5′-[…]-3′ (antisense). qPCR experiments were performed on a Bio-Rad CFX96 Touch (Pleasanton, CA, USA) according to the manufacturer’s instructions.
(Quantitative PCR measures a nucleic acid by following its amplification.)

Regarding “INWLKLGKAVIDAL-NH2 [Protopolybia-MP III]”, the “cytotoxicity to Vero cells” value in series [1] is recorded as “almost nontoxic”. For the same substance, the HSV-1 virions inactivated in series [2] (1 μg/mL coincubated with HSV-1 (MOI 1) at 37 °C for 1 h) was 51%; in series [2] (10 μg/mL coincubated with HSV-1 (MOI 1) at 37 °C for 1 h), 99%. Also, the “inhibition rate of HSV-1 virion infectivity” value in series [2] (20 μg/mL coincubated with HSV-1 (MOI 1) at 4 °C for 1 h), in series [2] (20 μg/mL coincubated with HSV-1 (MOI 1) at 22 °C for 1 h) and in series [2] (20 μg/mL coincubated with HSV-1 (MOI 1) at 37 °C for 1 h) was “above 99%” throughout. For the same substance, the “inhibition rate of HSV-1 free virion infectivity” value in series [2] (mutant comparison (Figure 7C): 5 μg/mL coincubated with HSV-1 (MOI 1) at 37 °C for 1 h) stood at 97.3%.
